Test results from patent publication EP0932387B1 (UNILEVER PLC, priority 1996, dated 1998).

Key:
Type in all cases: cell-based
Human keratinocytes [1] = assay: 3H-Thymidine incorporation, keratinocyte proliferation; conditions: 250 nM
Experimental: (§1) Human keratinocytes, isolated from neonatal foreskin by trypsin treatment were grown in Dulbecco Modification Eagle (DME) Hams F12 (1:1) medium/10% fetal calf serum in the presence of irradiated 3T3 mouse fibroblasts for establishing dividing keratinocyte colonies. Cells were grown under the above condition until their second passage and kept frozen for future use. Frozen second passage keratinocytes were thawed and plated into the above medium and grown for five days before they were switched to a serum-free MCDB 153-based medium keratinocyte growth medium (KGM) from Clonetics Corporation, San Diego, CA, containing 0.15 mM Ca, or keratinocyte serum-free media (KSFM) from GIBCO containing 0.09 mM Ca). On day 7, when the cells were 80-90% confluent, they were trypsinized and plated in the serum-free medium for the various experiments.
The incorporation of ^3H-thymidine by cultured keratinocytes was used as an assay of keratinocyte proliferation. Thymidine is one of four deoxynucleosides which are the monomeric units of DNA, the universal library of genetic information in the animal kingdom. Prior to cell division of a somatic cell such as a keratinocyte, the complete genome of the cell undergoing cell division is replicated. This involves large scale DNA synthesis by the cell and enables both daughter cells to receive identical copies of the genetic material. When ^3H-thymidine is included in the culture media of keratinocytes which are synthesizing DNA in preparation for cell division then the labelled nucleoside is incorporated into the newly synthesized DNA. The extent of incorporation of ^3H-thymidine into a population of cells is proportional to the rate of DNA synthesis by this population of cells and therefore an indication of their cellular proliferation.
Keratinocytes (that were cultured as described above) were plated in 24 well plates at a density of 20,000 cells per well in 1 ml media. After incubation for four days or until the cells were 60-70% confluent, the media was changed. Test compounds were added (in triplicate) to the wells 24 hours after the media change, and four hours later 1µCi ^3H-Thymidine in 50 µl media was added per well. Cells were incubated for a further 24 hours. Media was removed from the cells, 10% ice cold trichloroacetic acid (TCA) added and plates were incubated on ice for 30 minutes. Cells were washed five times with 5% TCA and allowed to dissolve in 500 µl 0.1M NaOH for at least one hour (usually overnight). The preparations were neutralized with 0.1M HCl; 50 µl of the cell preparation was used to determine total protein content. Disintegrations per minute (DPM) from ^3H labelling of DNA was determined by liquid scintillation counting of 900µl of the cell preparation. Thymidine incorporation results were expressed as DPM/µg protein.

Human keratinocytes [2] = assay: Transglutaminase Assay (TGase I ELISA, procedure for other Examples), normalized to DNA; keratinocyte differentiation
Experimental: as §1
During the process of terminal differentiation in the epidermis, a 15nm thick layer of protein, known as the cornified envelope (CE) is formed on the inner surface of the cell periphery. The CE is composed of numerous distinct proteins which have been cross-linked together by the formation of N^ε-(γ-glutamyl) lysine isodipeptide bonds catalyzed by the action of at least two different transglutaminases (TGases) expressed in the epidermis. Transglutaminase I (TGase I) is expressed in abundance in the differentiated layers of the epidermis, especially the granular layer, but is absent in the undifferentiated basal epidermis. Thus TGase I is a useful marker of epidermal keratinocyte differentiation with high TGase I levels indicating a more differentiated state. An ELISA based TGase I assay, using a TGase I antibody, was used to assess the state of differentiation of the cultured keratinocytes in the examples that follow.
Keratinocytes (cultured as described above) were plated in 96 well plates at a density of 3,000 cells per well in 200µl of cell culture media. After incubation for four days, the media was changed to media containing test compounds (six replicates per test). The cells were cultured for a further 72 hours after which time the media was aspirated and the plates stored at -70°C. After the plates were removed from the freezer, the cells were further freezed fractured by freezing and thawing and then washed 3x with PBS. The cells were incubated for one hour at room temperature (R/T) with TBS/5% BSA buffer. Cells were then incubated with 100µl of monoclonal anti-human transglutaminase (IgG) mouse antibody (primary antibody) obtained from Biomedical Technologies Inc. diluted 1:2000 in TBS/1% BSA buffer for two hours at 37°C, and then rinsed six times with wash buffer (TBS/1% BSA/0.05% Tween-20). Cells were next incubated with 100µl of Fab fragment, peroxidase conjugated anti-mouse IgG antibody (secondary antibody) from Amersham diluted 1:4,000 in wash buffer for two hours at 37°C and then rinsed three times with wash buffer and three times with PBS. Cells were incubated with substrate solution (4mg o-phenylene diamine and 3.3µl 30% H2O2 in 10mL 0.1M citrate buffer, pH 5.0) for five minutes at R/T and in darkness (under aluminum foil). The reaction was stopped by the addition of 50µl 4N H2SO4. The absorbance of samples was read at 492nm in the plate reader. Out of the six replicates, four were treated with both antibodies, two were treated only with the secondary antibody (i.e., to determine the background binding of the enzyme conjugated antibody). Transglutaminase I levels were determined by subtracted background from the readings from each treatment and determining the mean ± s.d. for the replicates exposed to both antibodies.
The level of TGase I detected after treatment of the cells could be influenced by cell number, i.e., the greater the number of cells the greater the level of TGase-1 detected. The level of Tgase I was normalized to DNA content of the cells in the same well thus eliminating variation due to differences in cell number. […]

Human keratinocytes [3] = assay: Transglutaminase Assay (TGase I ELISA, Example 1 procedure), normalized to DNA; keratinocyte differentiation; conditions: 2.5 x 10^-7M, 2.5 x 10^-8M and 2.5x10^-9M, vs ethanol control
Experimental: as §1, with “experiments. […]” for “experiments.”
Keratinocytes (cultured as described above) were plated in 96 well plates at a density of 3,000 cells per well in 200 µl media. […] The absorbance of samples was read at 492nm in the plate reader. […] TGase levels were determined by subtracting background from the readings from each treatment and determining mean ± s.d. for the replicates exposed to both antibodies.
The level of TGase I detected after treatment of the cells could be influenced by cell number, i.e., the greater the number of cells the greater the level of TGase-1 detected. […]

CC1=C(/C=C/C(C)=C/C=C/C(C)=C/CO)C(C)(C)CCC1 [retinol]
% Control (Human keratinocytes [1]; Table 9A, Experiment #1): 108% | DPM/Microgram Protein mean (Human keratinocytes [1]; Table 9A, Experiment #1): 2082 DPM/Microgram Protein | % Control (Human keratinocytes [1]; Table 9B, Experiment #2): 107% | DPM/Microgram Protein mean (Human keratinocytes [1]; Table 9B, Experiment #2): 974 DPM/Microgram Protein | % Control (Human keratinocytes [2]; Table 7, experiment 1, 0.001 mM, transglutaminase normalized to DNA): 67% | TGase/ DNA (% control) (Human keratinocytes [2]; Table 11, 2.5x10^-9M, 72 hour treatment): 91% | TGase/ DNA (% control) (Human keratinocytes [2]; Table 11, 2.5x10^-9M, 72 hour treatment, listed as Retinol): 92% | mean TGase/ DNA x10^5 ± s.d (Human keratinocytes [2]; Table 11, 2.5x10^-9M, 72 hour treatment, n = 3): 48.31 ± 5.31 | TGase/ DNA (% control) (Human keratinocytes [2]; Table 13, 2.5x10^-7M, 72 hour treatment): 90% | Transglutaminase levels normalized to DNA content of the cells (Human keratinocytes [3]): decrease in transglutaminase level was dose dependent
